The values that follow come from PMC5814047, “Peptidic inhibitors of insulin-degrading enzyme with potential for dermatological applications discovered via phage display” (PLoS ONE, 2018).

Broadly, the inhibition is how much of the control response was suppressed. Low values mean little suppression, high ones strong suppression.

Several values for one entry are separate records, joined by “and”; a condition that tells them apart may be missing. Identical values can stand only once. Entries after “also recorded” stand apart in the source; their conditions may differ. Bridge positions count the residues as written; N and C are the ends. Peptide text beside a SMILES is read from it.

One assay has as its target T1, MMP-7 (Homo sapiens, UniProt P09237).
T1 construct: purchased Enzo Life Sciences, Inc
T1 sequence (P09237 95-267): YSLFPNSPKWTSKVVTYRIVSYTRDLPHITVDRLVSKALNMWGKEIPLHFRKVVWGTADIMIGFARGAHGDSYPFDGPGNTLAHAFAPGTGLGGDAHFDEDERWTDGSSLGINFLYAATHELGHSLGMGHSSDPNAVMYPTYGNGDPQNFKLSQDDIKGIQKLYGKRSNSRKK
Description: MMP Inhibitor Profiling Kit, MMP-7. Type of assay: biochemical. Conditions: P12-3A 100 μM. The procedure:
IDE activity was quantified by monitoring the degradation of Mca-[…](Dnp) (FRET1, 5 μM), fluoresceinated and biotinylated amyloid ß-protein (FAßB; 500 nM) or recombinant human insulin (50 nM) in PBS supplemented with 0.05% BSA. FRET1 degradation was measured by changes in fluorescence (λex = 340 nm, λem = 420 nm); FAßB degradation was monitored by fluorescence polarization (λex = 488 nm, λem = 525 nm), as described; and insulin degradation was quantified by ELISA. In vitro activity assays incorporated recombinant human IDE (1 nM) purified from bacteria. For quantitation of insulin degradation in primary murine skin fibroblasts, cells (1 x 10^5/well) were plated in 96-well plates and maintained in DMEM supplemented with 10% fetal bovine serum (FBS), 2mM glutamine, penicillin and streptomycin. After addition of insulin (10 nM or 100 nM), samples of conditioned medium were removed daily and quickly frozen, then insulin levels were quantified in parallel by ELISA according to manufacturer’s recommendations (Crystal Chem, Downers Grove, IL, USA). Assessment of the activity of P12-3A against a variety of matrix-metalloproteases was conducted using the Matrix Metalloproteinase (MMP) Inhibitor Profiling Kit, Fluorometric RED (Enzo Life Sciences, Inc., Farmingdale, NY, USA) according to manufacturer’s recommendations using the broad-spectrum MMP inhibitor, NNGH, as a positive control. […]

For assay [1], the system named is primary murine skin fibroblasts. Description: Cell proliferation (CellTiter 96 AQueous). It is filed as cell-based. Conditions: for Cell count, Mean / Cell count: P12-3A 100 uM, 100nM insulin added, cells per well; for Cell count, Mean: N 6; for Cell count: individual replicates. How it is done:
Insulin promotes wound healing and overall skin health by affecting a number of processes, including cell proliferation, cell migration, and the production and secretion of ECM components, particularly type I collagen. We therefore assessed the ability of P12-3A to influence these processes in cultured skin fibroblasts and keratinocytes. To that end, primary mouse skin fibroblasts were grown for 4 d in multiple concentrations of insulin in the presence or absence of P12-3A, and insulin concentration over time was monitored by ELISA. […] Finally, the effects of P12-3A on collagen production in were assessed at both the transcriptional and the posttranslational level in confluent monolayers of fibroblasts. After 4 d of treatment with P12-3A (100 μM), mRNA levels for the major form of collagen, alpha-1 type I collagen (COL1A1), were quantified by RT-PCR and found to be increased to ~2.6 times the levels of untreated cells (Fig 4C). To assess overall levels of collagen production and secretion, we quantified levels of hydroxyproline, a modified amino acid present almost exclusively in collagen proteins. […] Western blotting also confirmed that mature, cell-associated collagen levels were increased in the presence of P12-3A (Fig 4E).
Fig 4 Effects of P12-3A on cultured skin cells. A, Insulin concentrations as a function of time in logarithmically growing primary murine skin fibroblasts in the absence or presence of P12-3A (100 μM). […] Data are mean ± SEM of 4 independent replications. *P<0.05, **P<0.01. B, Proliferation of cells in the absence or presence of P12-3A (100 μM). Data are mean ± SEM of 6 independent replications. […] C,D,E, P12-3A (100 μM) potentiates insulin-induced collagen production in skin fibroblasts. Collagen production was assessed by COL1A1 mRNA levels (C), levels of hydroxyproline secreted into the medium (D), and cell-associated mature alpha-1 type I collagen levels detected by Western blotting (E). Data are mean ± SD of 4 independent replications. *P<0.05, **P<0.01. […] Migration of HaCaT cells 48 h after induction of a scratch wound in the presence of the indicated quantities of insulin and/or P12-3A (100 μM). Data are mean ± SEM of 6 independent replications. *P<0.05, **P<0.01.
Primary murine skin fibroblasts cells (1 x 10^5/well) were plated in 96-well plates, using separate plates for each timepoint and endpoint. Cell proliferation was quantified using the CellTiter 96® AQueous Non-Radioactive Cell Proliferation Assay (Promega Corp., Madison, WI, USA) according to manufacturer’s recommendations.

On to `CC(C)C[C@H](NC(=O)[C@H](CO)NC(=O)[C@@H](N)CCC(N)=O)C(=O)N1CCC[C@H]1C(=O)N[C@@H](Cc1c[nH]c2ccccc12)C(=O)N[C@H]1CSSC[C@@H](C(=O)N[C@H](C(=O)N[C@H](C(N)=O)[C@@H](C)O)C(C)C)NC(=O)[C@H](Cc2c[nH]cn2)NC(=O)[C@@H]2CCCN2C(=O)[C@H](Cc2ccc(O)cc2)NC1=O` [P12-3A] (H-QSLPWCYPHCVT-NH2; disulfide 6-10 (inferred)), for which the inhibition at 100 µM against MMP-7 was roughly 18%. Also, the “cell proliferation relative to control cells” value in assay [1] (100 μM P12-3A, 10 nM insulin) is on record as “modestly increased; also recorded: No significant differences were observed”. Moreover, the “Cell count, Mean” value in assay [1] (t 0 d) is recorded as 0.15 *100,000; in assay [1] (t 1 d), 0.28 *100,000; in assay [1] (t 2 d) it was 0.63 *100,000; in assay [1] (t 3 d) it was 1.33 *100,000; in assay [1] (t 4 d) it was 2.46 *100,000. Moreover, the Cell count in assay [1] (t 0 d) was 0.1682 *100,000 and 0.1108 *100,000 and 0.1565 *100,000 and 0.1271 *100,000 and 0.1836 *100,000 and 0.1526 *100,000; in assay [1] (t 1 d), 0.0908 *100,000 and 0.3439 *100,000 and 0.3368 *100,000 and 0.2676 *100,000 and 0.3256 *100,000 and 0.3423 *100,000; in assay [1] (t 2 d) it was 0.4380 *100,000 and 0.6462 *100,000 and 0.8125 *100,000 and 0.5756 *100,000 and 0.7135 *100,000 and 0.6125 *100,000; in assay [1] (t 3 d) it was 1.4714 *100,000 and 1.6270 *100,000 and 1.4135 *100,000 and 1.4988 *100,000 and 1.1573 *100,000 and 0.8293 *100,000; in assay [1] (t 4 d) it was 3.2440 *100,000 and 1.8308 *100,000 and 1.5133 *100,000 and 1.9615 *100,000 and 2.9117 *100,000 and 3.3184 *100,000.
